The values below come from ChEMBL document CHEMBL5233260, “Diverse chemical space of indoleamine-2,3-dioxygenase 1 (Ido1) inhibitors” (Eur J Med Chem, 2021).

pEC50, pIC50, pKi: −log10 of the molar value. Where “and” joins values, the source holds several entries; their conditions need not be identical. Equal entries are not always repeated. Bounds are passed on as bounds.

The target in one assay is T1, Indoleamine 2,3-dioxygenase 1 (Homo sapiens, UniProt P14902). Put plainly: Inhibition of human IDO1 using L-tryptophan as substrate incubated for 1 hr by absorbance based analysis.
Target sequence in this assay (P14902 whole entry): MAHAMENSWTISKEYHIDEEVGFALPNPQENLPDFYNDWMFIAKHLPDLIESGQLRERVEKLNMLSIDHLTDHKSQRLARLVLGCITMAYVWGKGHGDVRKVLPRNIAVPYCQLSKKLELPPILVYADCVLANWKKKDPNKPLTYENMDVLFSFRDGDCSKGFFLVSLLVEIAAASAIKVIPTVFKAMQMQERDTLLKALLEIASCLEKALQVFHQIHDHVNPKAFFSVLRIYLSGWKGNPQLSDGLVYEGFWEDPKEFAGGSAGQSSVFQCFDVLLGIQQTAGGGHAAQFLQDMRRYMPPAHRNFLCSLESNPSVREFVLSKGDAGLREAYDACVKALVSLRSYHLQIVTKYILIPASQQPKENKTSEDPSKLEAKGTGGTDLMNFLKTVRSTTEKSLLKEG
Consider `O=C(NC(c1cccc(Br)c1)n1ccnc1)c1ccc([N+](=O)[O-])cc1` (configuration not stated), for which the pIC50 is 6.09.

The target of the next assay is T1, Indoleamine 2,3-dioxygenase 1. Briefly: Inhibition of IDO1 (unknown origin) at 1 uM relative to control.
Target sequence in this assay (P14902 whole entry, looked up): as the sequence (P14902 whole entry) above
As to `O=C(NCc1cnc2scc(-c3ccc(Br)cc3)n12)n1cc(C2CC2)nn1`, the inhibition amounted to 70%.

For the molecule `N#Cc1ccc(Cc2cn(Cc3cnc4scc(-c5ccc(Br)cc5)n34)nn2)cc1`, the inhibition came to 75%.

The next assay has the same target. Briefly: Inhibition of human IDO1 expressed in Escherichia coli using L-tryptophan as substrate incubated for 30 mins by methylene blue dye based microplate reader analysis.
Target sequence in this assay (P14902 whole entry): as above
`COC(=O)c1c(C)oc2c1C(=O)C(OC)=CC2=O`: the pIC50 was 5.14.

`COC1=CC(=O)c2sc(C)c(CO)c2C1=O` had a pIC50 of 6.00.

The molecule `COC1=CC(=O)c2c(c(CO)nn2C)C1=O` showed a negative-log IC50 (pIC50) of 6.00.

Turning to `COC1=CC(=O)c2c(oc(C)c2CO)C1=O`, the pIC50 is 6.30.

`COC1=CC(=O)c2c(c(CO)c(C)n2C)C1=O`: the pIC50 was 5.00.

`COC1=CC(=O)c2c(nc(COc3ccc([N+](=O)[O-])cc3)n2C)C1=O` had a pIC50 of 7.00.

The target is the same in the next assay. Briefly: Inhibition of human recombinant IDO1 using L-tryptophan as substrate incubated for 10 mins by absorbance based analysis.
Target sequence in this assay (P14902 whole entry): as above
Regarding `COc1nsc2c1C(=O)c1c(O)cccc1C2=O`, the negative logarithm of the IC50 (pIC50) is 7.15.

The next assay has the same target. Put plainly: Inhibition of IDO1 in human HeLa cells assessed as inhibition of kynurenine production incubated for 30 mins by microplate reader based analysis. In kind it is cell-based.
Target sequence in this assay (P14902 whole entry): as above
For `Cc1cc(Cl)nc2onc(N)c12`, the pIC50 is above 6.00.

Regarding `CCN(c1ncc(C2(C(=O)O)CCC2)cc1Nc1ccc(Cl)cc1)C1CCOCC1`, the pIC50 is 7.00.

The target is the same in another assay. Put plainly: Inhibition of IDO1 in human HeLa cells. In kind it is cell-based.
Target sequence in this assay (P14902 whole entry): as above
For `N#Cc1ccc(NC(=O)Nc2ccc(S(=O)(=O)NNc3ccc(Br)cc3)cc2)cc1`, the negative-log EC50 (pEC50) was 7.29.

The next assay has the same target. Put plainly: Inhibition of IDO1 in human MDA-MB-231 cells. In kind it is cell-based.
Target sequence in this assay (P14902 whole entry): as above
As for `NS(=O)(=O)NCCNC(=O)c1n[nH]nc1/C(=N/O)Nc1ccc(F)c(Br)c1`, the pIC50 is 7.55.

Another assay shares this target. Briefly: Binding affinity to IDO1 (unknown origin) assessed as inhibition constant.
Consider `CCc1c(C)cc2c(c1O)C(=O)C1=C(C2=O)C(C)(C)OC1(O)C(=O)OC` (configuration not stated), for which the pKi is 6.68.

`NC(Cc1csc2ccccc12)C(=O)O` (configuration not stated): the pKi is 5.15.

In the case of `COC(=O)/C1=C/c2c([nH]c3ccccc23)/C(C(=O)OC)=C\c2c1[nH]c1ccccc21` [CAULERPIN], the negative logarithm of the Ki (pKi) is 5.70.

Consider `CC12CCCc3coc(c31)C(=O)c1cc3c(cc12)C(=O)C1C(NCCS1(=O)=O)C3=O` (configuration not stated), for which the pKi was 7.60.

For the molecule `CCc1cc2c(cc1C)C(=O)C1=C(C2=O)C(OC)(C(=O)OC)OC1(C)C` (configuration not stated), the negative logarithm of the Ki (pKi) was 6.85.

For `CC12CCCc3coc(c31)C(=O)c1cc3c(cc12)C(=O)C1NCCS(=O)(=O)C1C3=O` (configuration not stated), the pKi was 7.07.

Regarding `NC(Cc1coc2ccccc12)C(=O)O` (configuration not stated), the pKi is 4.15.

The target is the same in a further assay. Put plainly: Inhibition of human IDO1 using L-tryptophan as substrate by methylene blue dye based spectrometric method.
With `Cc1ccc(S(=O)(=O)NNC(=O)c2n[nH]c3ccccc23)cc1`, the pIC50 was 4.77.

In the case of `c1ccc(-c2[nH]nc3ccccc23)cc1`, the pIC50 is 4.71.

On to `O=C(NNc1ccccc1)c1n[nH]c2ccccc12`, for which the pIC50 was 6.14.

Molecule `c1cncc(-c2n[nH]c3ccccc23)c1` had a negative-log IC50 (pIC50) of 5.02.

`Clc1ccc(-c2n[nH]c3ccccc23)cc1Cl` had a pIC50 of 5.26.

The target is the same in a further assay. Put plainly: Inhibition of human recombinant N-terminal his6-tagged IDO1 expressed in Escherichia coli BL21 using L-tryptophan as substrate incubated for 1 hr by methylene blue dye based UV-Vis spectrophotometer analysis.
With `NS(=O)(=O)NCCNC(=O)c1n[nH]nc1/C(=N/O)Nc1ccc(F)c(Br)c1`, the pIC50 is 7.04 and 7.55.

The next assay has the same target. Put plainly: Inhibition of IDO1 in HEK293 cells at 20 uM incubated for 24 hrs by LC-MS/MS analysis relative to control. In kind it is cell-based.
Target sequence in this assay (P14902 whole entry, looked up): as the sequence (P14902 whole entry) above
Molecule `O/N=C(\Nc1ccc(F)c(Br)c1)c1cccc2cn[nH]c12` showed an inhibition of 80%.

For the next assay the target is unchanged. Put plainly: Inhibition of IDO1 (unknown origin).
For `COC1=C(OC)C(=O)C(CCC(C)C)=C(C)C1=O`, the negative-log IC50 (pIC50) is 5.55.

Molecule `COC(=O)[C@H]1CCCN1C[C@@H](O)c1c(OC)cc2c(c1O)C(=O)c1cc(O)c(C)cc1C2=O` gave a negative-log IC50 (pIC50) of 6.30.

On to `COC1=C(OC)C(=O)C(Nc2ccccc2)=C(C)C1=O`, for which the pIC50 was 6.15.

For the molecule `COC1=CC(=O)c2c(O)c3c(c4c2[C@]12CC(=O)C[C@H]2[C@@]1(C[C@H](O)[C@H](O)CO1)O4)C[C@](C)(O)[C@H](O)C3`, the pIC50 was 4.49.

As to `COC1=C(OC)C(=O)C(Nc2cccc(NC(=O)Nc3ccccc3)c2)=C(C)C1=O`, the negative-log IC50 (pIC50) is 6.40.

In the case of `COC1=C(OC)C(=O)C(Nc2ccccc2)=CC1=O`, the pIC50 was 6.22.

`O=C(Cc1ccccc1)Nc1ccc(CCOc2ccccc2-c2cnc[nH]2)cc1` showed a negative logarithm of the IC50 (pIC50) above 6.00.

The molecule `COC1=C(OC)C(=O)C(Nc2ccc(Cl)cc2)=CC1=O` gave a negative-log IC50 (pIC50) of 6.57.

The molecule `C=C1CC[C@@H]2[C@](C)(CO)[C@H](O)CC[C@@]2(C)[C@@H]1C/C=C1/C(=O)OC[C@H]1O` [ANDROGRAPHOLIDE] gave a negative-log IC50 (pIC50) of 3.80.

With `Brc1cc(Nc2ccc3nonc3c2)c2cn[nH]c2c1`, the pIC50 was 4.13.

`CNC(=O)[C@H]1[C@@H](OC)C2(O)c3ccccc3NC(=O)[C@@]2(C(=O)N[C@@H](CCC(=O)OC)C(=O)C=C(C)C)N1C` (some centres not stated) showed a negative-log IC50 (pIC50) of 5.00.

With `CS[C@@]1(C)C(=O)N2[C@H]3N(c4ccc5oc6cc(=O)c(N)c(C(=O)O)c-6nc5c4C(=O)O)c4ccccc4[C@@]3(c3c[nH]c4ccccc34)[C@H](O)[C@]2(SC)C(=O)N1C`, the pIC50 is 5.70.

Consider `CCc1c(OC)cc2c(c1O)C(=O)C[C@@H](OC)[C@@H]2O`, for which the pIC50 was 5.20.

Turning to `Nc1oc2cnccc2c1Nc1ccc(F)c(Cl)c1`, the pIC50 was above 6.70.

The molecule `COc1c(C(C)=O)c(C)cc2cc3c(c(O)c12)C(=O)C(C)(C)C(=O)C3(C)C` gave a negative logarithm of the IC50 (pIC50) of 5.93.

For another assay, the target named is T2, Indoleamine 2,3-dioxygenase 1 (Mus musculus, UniProt P28776). Briefly: Inhibition of mouse IDO1 using L-tryptophan as substrate by methylene blue dye based analysis.
T2 sequence (P28776 whole entry): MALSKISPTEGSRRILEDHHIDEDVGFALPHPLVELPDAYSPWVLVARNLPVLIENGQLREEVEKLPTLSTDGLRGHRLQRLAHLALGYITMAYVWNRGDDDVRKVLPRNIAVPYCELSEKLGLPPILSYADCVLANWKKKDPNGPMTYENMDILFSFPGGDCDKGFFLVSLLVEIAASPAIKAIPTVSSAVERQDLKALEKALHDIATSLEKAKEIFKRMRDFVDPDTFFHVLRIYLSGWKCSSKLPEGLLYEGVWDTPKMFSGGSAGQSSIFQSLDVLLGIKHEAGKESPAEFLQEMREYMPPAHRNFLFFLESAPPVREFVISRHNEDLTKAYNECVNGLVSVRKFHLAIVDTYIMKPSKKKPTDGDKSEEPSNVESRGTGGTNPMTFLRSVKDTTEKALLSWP
Molecule `Fc1ccc(Nc2ccc3c[n+]4ccccc4cc3c2)cc1` had a pIC50 of 6.28.

As for `Cc1ccc(Nc2ccc3c[n+]4ccccc4cc3c2)cc1`, the pIC50 was 4.77.

As to `COc1ccc(Nc2ccc3c[n+]4ccccc4cc3c2)cc1`, the negative logarithm of the IC50 (pIC50) is below 4.18.

In the case of `Clc1cccc(Nc2ccc3c[n+]4ccccc4cc3c2)c1`, the pIC50 was 4.40.

`CN(C)c1ccc(Nc2ccc3c[n+]4ccccc4cc3c2)cc1` gave a pIC50 below 4.30.

As for `Clc1ccc(Nc2ccc3c[n+]4ccccc4cc3c2)cc1`, the pIC50 was 6.29.

As for `c1ccc(Nc2ccc3c[n+]4ccccc4cc3c2)cc1`, the negative-log IC50 (pIC50) was 6.25.

Another assay deals with T1, Indoleamine 2,3-dioxygenase 1. Briefly: Inhibition of human IDO1 incubated for 30 mins by microplate reader based analysis.
Molecule `COc1cc(O)c2c(c1)C(=O)C1=C(C2=O)[C@@H](C)O[C@@H](C)C1` showed a pIC50 of 5.30.

For the next assay the target is unchanged. Briefly: Inhibition of IDO1 in human A549 cells by ELISA assay. The format is cell-based. In general terms: An ELISA detects its analyte on a solid surface through an enzyme-linked reagent.
`CC(=O)NCCc1c(C(=O)c2ccccc2[N+](=O)[O-])[nH]c2ccc(Cl)cc12` had a pIC50 of 6.13.

A further assay shares this target. Put plainly: Inhibition of human IDO1.
In turn, `N#Cc1ccc(NC(=O)Nc2ccc(S(=O)(=O)NNc3ccc(Br)cc3)cc2)cc1` had a pIC50 of 6.70.

A further assay shares this target. Briefly: Inhibition of IDO1 (unknown origin) at 10 uM relative to control.
Target sequence in this assay (P14902 whole entry, looked up): as the sequence (P14902 whole entry) above
`O[C@H]1CCCC[C@@H]1CNc1cc(Br)cc2[nH]ncc12` had an inhibition above 70%.

Another assay has the same target. Briefly: Inhibition of IDO1 (unknown origin) at 1 mM relative to control.
Target sequence in this assay (P14902 whole entry, looked up): as the sequence (P14902 whole entry) above
With `O=C(O)C[C@H]1CNC(=O)c2cc(Br)c(Br)n21`, the inhibition is 30%.

The next assay has as its target T2, Indoleamine 2,3-dioxygenase 1. Put plainly: Inhibition of IDO1 in mouse LLTC cell line. In kind it is cell-based.
In turn, `COc1ccc2c(c1)C(=O)C1=C(C2=O)[C@@H](C)O[C@@H](CC(=O)O)C1` had a negative-log IC50 (pIC50) of 6.10.

`COc1cccc2c1C(=O)C1=C(C[C@H](Cn3cc(-c4ccccc4)nn3)O[C@@H]1C)C2=O` showed a pIC50 of 5.22.

By pIC50 is commonly meant the IC50 on a negative log10 scale, so that one unit is a factor of ten. For orientation: inhibition means how much of the control response was suppressed. A higher inhibition goes with a response far below the control. As usually defined, the pEC50 is the EC50 on a negative log10 scale, so that one unit is a factor of ten. A lower pEC50 goes with a large EC50. As usually defined, the pKi is −log10 of the Ki, conventionally taken in molar units.
